Tests used:
[1] = molecular target: T1, Bromodomain-containing protein 2 (Homo sapiens, UniProt P25440); assay: Displacement of FAM-labeled ZBA248 from BRD2 BD2 (349 to 460 amino acid residues) (unknown origin) expressed in Rosetta2 DE3 cells after 30 mins by fluorescence polarization assay
[2] = molecular target: T1, Bromodomain-containing protein 2; assay: Binding affinity to biotinylated BRD2 BD2 (349 to 460 amino acid residues) (unknown origin) expressed in Rosetta2 DE3 cells by bio-layer interferometry method

T1 sequence (P25440 whole entry, the tested form may be a part): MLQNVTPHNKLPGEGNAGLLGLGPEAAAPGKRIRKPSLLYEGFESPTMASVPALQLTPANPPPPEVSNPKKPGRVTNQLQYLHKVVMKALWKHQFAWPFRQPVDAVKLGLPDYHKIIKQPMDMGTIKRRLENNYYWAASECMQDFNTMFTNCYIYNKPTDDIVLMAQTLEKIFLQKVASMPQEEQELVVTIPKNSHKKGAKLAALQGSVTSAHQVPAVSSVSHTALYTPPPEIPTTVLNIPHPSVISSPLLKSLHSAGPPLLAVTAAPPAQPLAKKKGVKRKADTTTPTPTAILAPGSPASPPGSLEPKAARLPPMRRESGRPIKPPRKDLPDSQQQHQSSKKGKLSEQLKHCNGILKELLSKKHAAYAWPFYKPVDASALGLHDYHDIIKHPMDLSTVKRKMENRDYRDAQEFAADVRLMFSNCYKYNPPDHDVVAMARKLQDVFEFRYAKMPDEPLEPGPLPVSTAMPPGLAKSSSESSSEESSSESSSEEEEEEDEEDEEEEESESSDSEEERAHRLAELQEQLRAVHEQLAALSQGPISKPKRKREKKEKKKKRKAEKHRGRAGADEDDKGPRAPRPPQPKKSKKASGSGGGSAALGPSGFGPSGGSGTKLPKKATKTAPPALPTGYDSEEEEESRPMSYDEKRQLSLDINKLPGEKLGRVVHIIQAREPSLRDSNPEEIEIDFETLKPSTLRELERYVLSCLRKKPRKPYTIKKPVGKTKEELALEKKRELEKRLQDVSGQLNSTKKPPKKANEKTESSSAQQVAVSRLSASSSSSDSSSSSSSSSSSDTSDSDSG

Ki [1]: 11.7 nM
Kd [2]: 29.6 nM
SMILES: COc1cc2c(cc1-c1c(C)noc1C)[nH]c1ccnc(-c3c(C4CC4)n[nH]c3C)c12
